Results reported in ChEMBL document CHEMBL4000206, “An efficient anticoagulant candidate: Characterization, synthesis and in vivo study of a fondaparinux analogue Rrt1.17” (Eur J Med Chem, 2017).
Calls of active or inactive are those of the source. The rule behind the calls is not given here.

Legend:
[1] = target: T1, Coagulation factor X (Homo sapiens, UniProt P00742); assay: Inhibition of factor 10a (unknown origin) using S-2765 as substrate preincubated with AT-3 followed by factor 10a addition for 60 secs and subsequent addition of substrate for 60 secs measured after 4 mins
[2] = target: T1, Coagulation factor X; assay: Inhibition of factor 10a (unknown origin) using S-2765 as substrate assessed as compound potency preincubated with AT-3 followed by factor 10a addition for 60 secs and subsequent addition of substrate for 60 secs measured after 4 mins
[3] = test system: Rattus norvegicus; assay: Antithrombotic activity in Wistar rat venous thrombosis model assessed as reduction in weight of vein thrombus at 300 IU/kg, sc administered 1 hr prior to induction of thrombosis measured after 30 mins; type: functional, organism-based
[4] = test system: Rattus norvegicus; assay: Antithrombotic activity in Wistar rat venous thrombosis model assessed as reduction in weight of vein thrombus at 100 to 500 IU/kg, sc administered 1 hr prior to induction of thrombosis measured after 30 mins; type: functional, organism-based

T1 sequence (P00742 41-179 limits assumed): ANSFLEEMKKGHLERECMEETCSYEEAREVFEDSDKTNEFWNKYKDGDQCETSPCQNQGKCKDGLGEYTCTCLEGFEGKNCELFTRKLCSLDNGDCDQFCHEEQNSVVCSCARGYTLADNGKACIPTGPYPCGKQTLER
T1 sequence (P00742 235-488 limits assumed): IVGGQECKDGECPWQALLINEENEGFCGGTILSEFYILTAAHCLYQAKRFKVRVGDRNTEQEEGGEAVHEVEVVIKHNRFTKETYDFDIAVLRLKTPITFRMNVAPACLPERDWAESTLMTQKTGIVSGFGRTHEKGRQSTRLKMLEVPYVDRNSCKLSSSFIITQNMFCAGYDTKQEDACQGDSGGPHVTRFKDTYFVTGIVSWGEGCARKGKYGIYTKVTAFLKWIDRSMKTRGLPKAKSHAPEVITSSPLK

| Structure (SMILES) | IC50 [1] | INH [2] | Activity [3] | Activity [4] |
| --- | --- | --- | --- | --- |
| CO[C@H]1O[C@H](COS(=O)(=O)O)[C@@H](O[C@@H]2O[C@@H](C(=O)O)[C@@H](O[C@@H]3O[C@H](COS(=O)(=O)O)[C@@H](O[C@@H]4O[C@H](C(=O)O)[C@@H](O[C@H]5O[C@H](COS(=O)(=O)O)[C@@H](O)[C@H](O)[C@H]5NS(=O)(=O)O)[C@H](O)[C@H]4O)[C@H](OS(=O)(=O)O)[C@H]3N)[C@H](O)[C@H]2OS(=O)(=O)O)[C@H](O)[C@H]1NS(=O)(=O)O | 494 nM | 2.15 IU/mg | – | – |
| CO[C@H]1O[C@H](COS(=O)(=O)O)[C@@H](O[C@@H]2O[C@@H](C(=O)O)[C@@H](O[C@@H]3O[C@H](COS(=O)(=O)O)[C@@H](O[C@@H]4O[C@H](C(=O)O)[C@@H](O[C@H]5O[C@H](COS(=O)(=O)O)[C@@H](O)[C@H](O)[C@H]5NS(=O)(=O)O)[C@H](O)[C@H]4O)[C@H](OS(=O)(=O)O)[C@H]3NS(=O)(=O)O)[C@H](O)[C@H]2OS(=O)(=O)O)[C@H](O)[C@H]1NS(=O)(=O)O | 0.978 nM | 1170 IU/mg | Active | – |
| CO[C@H]1O[C@H](COS(=O)(=O)O)[C@@H](O[C@@H]2O[C@@H](C(=O)O)[C@@H](O[C@@H]3O[C@H](COS(=O)(=O)O)[C@@H](O[C@@H]4O[C@H](C(=O)O)[C@@H](O[C@H]5O[C@H](COS(=O)(=O)O)[C@@H](O)[C@H](O)[C@H]5N)[C@H](O)[C@H]4O)[C@H](OS(=O)(=O)O)[C@H]3N)[C@H](O)[C@H]2OS(=O)(=O)O)[C@H](O)[C@H]1NS(=O)(=O)O | 967 nM | 1.32 IU/mg | – | – |
| CO[C@H]1O[C@H](COS(=O)(=O)O)[C@@H](O[C@@H]2O[C@H]3C(=O)N[C@H]4[C@H](O[C@@H]3[C@H](O)[C@H]2OS(=O)(=O)O)O[C@H](COS(=O)(=O)O)[C@@H](O[C@@H]2O[C@H](C(=O)O)[C@@H](O[C@H]3O[C@H](COS(=O)(=O)O)[C@@H](O)[C@H](O)[C@H]3NS(=O)(=O)O)[C@H](O)[C@H]2O)[C@@H]4OS(=O)(=O)O)[C@H](O)[C@H]1NS(=O)(=O)O | 19.9 nM | 83.5 IU/mg | – | – |
| CO[C@H]1O[C@H](COS(=O)(=O)O)[C@@H](O[C@@H]2O[C@@H](C(=O)O)[C@@H](O[C@@H]3O[C@H](COS(=O)(=O)O)[C@@H](O[C@@H]4O[C@H](C(=O)O)[C@@H](O[C@H]5O[C@H](COS(=O)(=O)O)[C@@H](O)[C@H](O)[C@H]5NS(=O)(=O)O)[C@H](O)[C@H]4O)[C@H](OS(=O)(=O)O)[C@H]3NS(=O)(=O)O)[C@H](OS(=O)(=O)O)[C@H]2OS(=O)(=O)O)[C@H](O)[C@H]1NS(=O)(=O)O | 9.25 nM | 185 IU/mg | – | – |

Continued, in another order:

| IC50 [1] | INH [2] | Structure (SMILES) | Activity [3] | Activity [4] |
| --- | --- | --- | --- | --- |
| 1.14 nM | 1260 IU/mg | CO[C@H]1O[C@H](COS(=O)(=O)O)[C@@H](O[C@@H]2O[C@@H](C(=O)O)[C@@H](O[C@@H]3O[C@H](COS(=O)(=O)O)[C@@H](O[C@@H]4O[C@H](C(=O)O)[C@@H](O[C@H]5O[C@H](COS(=O)(=O)O)[C@@H](O)[C@H](O)[C@H]5NC=O)[C@H](O)[C@H]4O)[C@H](OS(=O)(=O)O)[C@H]3NS(=O)(=O)O)[C@H](O)[C@H]2OS(=O)(=O)O)[C@H](O)[C@H]1NS(=O)(=O)O | – | – |
| 20.7 nM | – | CC.O=C(O)[C@H]1O[C@@H](O[C@H]2[C@H](OS(=O)(=O)O)[C@@H](NS(=O)(=O)O)[C@H](O[C@H]3[C@H](O)[C@@H](OS(=O)(=O)O)[C@H](O[C@@H]4[C@H](O)[C@@H](CO)O[C@@H]4CS(=O)(=O)O)O[C@H]3C(=O)O)O[C@@H]2COS(=O)(=O)O)[C@H](O)[C@@H](O)[C@@H]1O[C@H]1O[C@H](COS(=O)(=O)O)[C@@H](O)[C@H](O)[C@H]1NS(=O)(=O)O | – | – |
| 3 nM | 719 IU/mg | CC.COC1O[C@H](COS(=O)(=O)O)[C@@H](O[C@@H]2O[C@@H](C(=O)O)[C@@H](O[C@@H]3O[C@H](COS(=O)(=O)O)[C@@H](O[C@@H]4O[C@H](C(=O)O)[C@@H](O[C@H]5O[C@H](COS(=O)(=O)O)[C@@H](O)[C@H](O)[C@H]5NS(=O)(=O)O)[C@H](O)[C@H]4O)[C@H](OS(=O)(=O)O)[C@H]3NS(=O)(=O)O)[C@H](O)[C@H]2OS(=O)(=O)O)[C@H](O)[C@H]1NS(=O)(=O)O (single isomer, unassigned) | – | – |
| 1.65 nM | 1140 IU/mg | CO[C@H]1O[C@H](COS(=O)(=O)O)[C@@H](O[C@@H]2O[C@@H](C(=O)O)[C@@H](O[C@@H]3O[C@H](COS(=O)(=O)O)[C@@H](O[C@@H]4O[C@H](C(=O)O)[C@@H](O[C@H]5O[C@H](COS(=O)(=O)O)[C@@H](O)[C@H](O)[C@H]5NS(=O)(=O)O)[C@H](O)[C@H]4O)[C@H](OS(=O)(=O)O)[C@H]3NS(=O)(=O)O)[C@H](O)[C@H]2OS(=O)(=O)O)[C@H](O)[C@H]1N(C)S(=O)(=O)O | – | Active |
